Results on seven compounds are retold here after patent US20250002489A1, “BIFUNCTIONAL COMPOUNDS FOR DEGRADING ITK VIA UBIQUITIN PROTEOSOME PATHWAY” (NURIX THERAPEUTICS, INC., priority 2021, published 2025).

In the assay the target is T1, ITK (Jurkat or Molt4 cells) (Homo sapiens, UniProt Q08881).
T1 construct: either human Jurkat (Clone E6-1 ATCC TIB-152) or Motl4 (ATCC CRL-1552), were plated; endogenous in cells; host or cells: Jurkat Clone E6-1 (ATCC TIB-152) or Molt4 (ATCC CRL-1552)
T1 sequence (Q08881 1-620): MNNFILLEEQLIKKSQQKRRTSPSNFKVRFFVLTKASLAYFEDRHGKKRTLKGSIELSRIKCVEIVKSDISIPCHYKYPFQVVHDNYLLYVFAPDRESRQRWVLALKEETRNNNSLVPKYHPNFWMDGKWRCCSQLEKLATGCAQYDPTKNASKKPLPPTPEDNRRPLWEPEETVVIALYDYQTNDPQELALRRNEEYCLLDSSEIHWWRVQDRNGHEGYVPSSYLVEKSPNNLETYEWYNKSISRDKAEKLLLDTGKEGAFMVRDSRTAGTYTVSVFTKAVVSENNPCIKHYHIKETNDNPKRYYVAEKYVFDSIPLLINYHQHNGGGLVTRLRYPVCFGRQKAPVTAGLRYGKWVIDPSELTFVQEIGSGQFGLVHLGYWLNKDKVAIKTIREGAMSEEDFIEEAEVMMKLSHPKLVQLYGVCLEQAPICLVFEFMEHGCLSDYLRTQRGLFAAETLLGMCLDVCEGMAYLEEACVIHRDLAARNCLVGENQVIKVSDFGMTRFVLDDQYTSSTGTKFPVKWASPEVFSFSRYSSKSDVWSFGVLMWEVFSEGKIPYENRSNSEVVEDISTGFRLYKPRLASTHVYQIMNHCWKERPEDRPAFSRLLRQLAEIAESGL
Put plainly: ITK Degradation MSD (Meso Scale Discovery) Assay. Conditions: 4 or 6 hrs incubation; for DC50: best fit IC50 used as DC50. Type of assay: cell-based. As for the experimental part: Compound dilution series (7-point, 5-fold dilutions in DMSO, rows B—H with replicate in Column 1/2, 3/4, 5/6, 7, and 8 at 2000× the final required concentrations were prepared in 96-well plate (Falcon, cat. no. 353077). Row A, Column 1-8 were control DMSO. The 2000× solutions ranged from 2 mM to 128 nM (final assay concentration range 1 μM to […]). The 2000×solutions were added to cells in 10 μL volume, for a final DMSO concentration of 0.5% and final assay compound concentration of 1×. For the cells, either human Jurkat (Clone E6-1 ATCC TIB-152) or Motl4 (ATCC CRL-1552), were plated at 1×10^6 cells/mL, 100 μL/well ([…]) in complete RPMI (10% FBS, 1% L-glutamine). The cells were incubated with compounds 26-29 for 4 or 6 hrs at 32° C./6% CO2.
Following incubation, plates were centrifuged at 1200 rpm for 5 min. Supernatant was removed and 50 μL of cell lysis buffer (MSD Tris lysis buffer (R60TX), complete Mini EDTA-free protease inhibitor (Sigma 11836170001), Protease Inhibitor Cocktail (Sigma, P2714), Phosphatase Inhibitor Cocktail 2 and 3 (Sigma, P5726 and P0044), Benzonase (Sigma, E1014)) was added to each well. Plate was sealed and shook at 4° C. for 30 min. Plate was centrifuged and 45 μL was removed for plate assay.
Assay plate preparation: Meso Scale Discovery (MSD) multi-array sm spot 96-well plates (Goat anti-Rabbit L^45-RA), were blocked with 3% BSA blocking buffer (3% Bovine Serum Albumin (Sigma A3059)+TBS 0.2% Tween-20) for one hour with gentle rocking at room temperature. Plate was then washed with 200 μL of 1×TBST (TBS 0.2% Tween-20) three times. After the last wash, all liquid was removed and 50 μL per well of capture antibody (abcam ITK Y402-ab32507) was added to plate at a 1:1000 dilution in blocking buffer (see above). Plate was sealed and rocked at room temperature for 2 hrs. Plate was then washed three times with 200 μL of 1×TBST. After the last wash, all liquid was removed and 45 μL of cell lysate (from above) was added to plate. Plate was sealed and rocked overnight at 4° C. The next day, cell lysates were removed, and assay plate was washed three times with 200 μL of 1×TBST. After the last wash, liquid was removed and detection antibody (CST ITK (2F12) #2380) was added at 50 μL per well at a dilution of 1:1000 in blocking buffer. Plate was sealed and rocked at room temperature for 2 hrs. Plate was washed three times with 200 μL of 1×TBST. After the last wash, all liquid was removed, MSD […] sulfo tag (R32AC-1) was diluted to 1:1000 in blocking buffer. 50 μL was added to each well on the plate. Plate was sealed and incubated at room temperature for one hour. Plate was washed three times with 200 μL of 1×TBST. After last wash, all liquid was removed and 150 μL of 1×MSD Read Buffer T (R92PC) was then added to each well for ECL read out.
For reading ECL signal, plate was read on a Meso Scale Discovery (MSD) MESO Sector S 600 plate reader. Percent ITK was then calculated as described below.
Percent ITK remaining per sample was calculated as follows: […]
Using Graphpad Prism, % ITK remaining values were plotted as a function of compound concentration. To determine DC50 and Dmax values, resulting curves were fit to the Prism curve-fitting equation “log(inhibitor) vs response−Variable slope (four parameters)” (reported best fit value IC50 used as DC50).

In turn, `Cc1ncsc1-c1ccc([C@H](C)NC(=O)[C@@H]2C[C@@H](O)CN2C(=O)[C@@H](NC(=O)CC2CCN(c3ccc(C(=O)N4CC([C@@H](c5ccccc5)n5cc(NC(=O)c6n[nH]c7c6C[C@@H]6C(F)(F)[C@]6(C)C7)cn5)C4)nc3)CC2)C(C)(C)C)cc1` [Compound 22, (4aS,5aR)-5,5-difluoro-N-(1-((S)-(1-(5-(4-(2-(((S)-1-((2S,4R)-4-hydroxy-2-(((S)-1-(4-(4-methylthiazol-5-yl)phenyl)ethyl)carbamoyl)pyrrolidin-1-yl)-3,3-dimethyl-1-oxobutan-2-yl)amino)-2-oxoethyl)piperidin-1-yl)picolinoyl)azetidin-3-yl)(phenyl)methyl)-1H-pyrazol-4-yl)-5a-methyl-1,4,4a,5,5a,6-hexahydrocyclopropa[f]indazole-3-carboxamide] registered a Dmax of 88% and a half-maximal degradation concentration (DC50) of 3.78 nM.

`Cc1ncsc1-c1ccc([C@H](C)NC(=O)[C@@H]2C[C@@H](O)CN2C(=O)[C@@H](NC(=O)c2ccc(N3CCC(CC(=O)N4CC([C@@H](c5ccccc5)n5cc(NC(=O)c6n[nH]c7c6C[C@@H]6C(F)(F)[C@]6(C)C7)cn5)C4)CC3)cn2)C(C)(C)C)cc1` [Compound 23, (4aS,5aR)-5,5-difluoro-N-(1-((S)-(1-(2-(1-(6-(((S)-1-((2S,4R)-4-hydroxy-2-(((S)-1-(4-(4-methylthiazol-5-yl)phenyl)ethyl)carbamoyl)pyrrolidin-1-yl)-3,3-dimethyl-1-oxobutan-2-yl)carbamoyl)pyridin-3-yl)piperidin-4-yl)acetyl)azetidin-3-yl)(phenyl)methyl)-1H-pyrazol-4-yl)-5a-methyl-1,4,4a,5,5a,6-hexahydrocyclopropa[f]indazole-3-carboxamide] came in with a Dmax of 91% and a DC50 of 13.3 nM.

`Cc1ncsc1-c1ccc([C@H](C)NC(=O)[C@@H]2C[C@@H](O)CN2C(=O)[C@@H](NC(=O)CN2CCN(CC(=O)N3CC([C@@H](c4ccccc4)n4cc(NC(=O)c5n[nH]c6c5C[C@@H]5C(F)(F)[C@]5(C)C6)cn4)C3)CC2)C(C)(C)C)cc1` [Compound 24, (4aS,5aR)-5,5-difluoro-N-(1-((S)-(1-(2-(4-(2-(((S)-1-((2S,4R)-4-hydroxy-2-(((S)-1-(4-(4-methylthiazol-5-yl)phenyl)ethyl)carbamoyl)pyrrolidin-1-yl)-3,3-dimethyl-1-oxobutan-2-yl)amino)-2-oxoethyl)piperazin-1-yl)acetyl)azetidin-3-yl)(phenyl)methyl)-1H-pyrazol-4-yl)-5a-methyl-1,4,4a,5,5a,6-hexahydrocyclopropa[f]indazole-3-carboxamide] came in with a Dmax of 93% and a DC50 of 92.7 nM.

The compound `Cc1ncsc1-c1ccc([C@H](C)NC(=O)[C@@H]2C[C@@H](O)CN2C(=O)[C@@H](NC(=O)CCOCCOCCC(=O)N2CC([C@@H](c3ccccc3)n3cc(NC(=O)c4n[nH]c5c4C[C@@H]4C(F)(F)[C@]4(C)C5)cn3)C2)C(C)(C)C)cc1` [Compound 30, (4aS,5aR)-5,5-difluoro-N-(1-((S)-(1-(3-(2-(3-(((S)-1-((2S,4R)-4-hydroxy-2-(((S)-1-(4-(4-methylthiazol-5-yl)phenyl)ethyl)carbamoyl)pyrrolidin-1-yl)-3,3-dimethyl-1-oxobutan-2-yl)amino)-3-oxopropoxy)ethoxy)propanoyl)azetidin-3-yl)(phenyl)methyl)-1H-pyrazol-4-yl)-5a-methyl-1,4,4a,5,5a,6-hexahydrocyclopropa[f]indazole-3-carboxamide] registered a Dmax of 86.3% and a DC50 of 38.8 nM.

`Cc1ncsc1-c1ccc([C@H](C)NC(=O)[C@@H]2C[C@@H](O)CN2C(=O)[C@@H](NC(=O)c2ccc(N3CCC(C(=O)N4CC([C@@H](c5ccccc5)n5cc(NC(=O)c6n[nH]c7c6C[C@@H]6C(F)(F)[C@]6(C)C7)cn5)C4)CC3)cn2)C(C)(C)C)cc1` [Compound 31, (4aS,5aR)-5,5-difluoro-N-(1-((S)-(1-(1-(6-(((S)-1-((2S,4R)-4-hydroxy-2-(((S)-1-(4-(4-methylthiazol-5-yl)phenyl)ethyl)carbamoyl)pyrrolidin-1-yl)-3,3-dimethyl-1-oxobutan-2-yl)carbamoyl)pyridin-3-yl)piperidine-4-carbonyl)azetidin-3-yl)(phenyl)methyl)-1H-pyrazol-4-yl)-5a-methyl-1,4,4a,5,5a,6-hexahydrocyclopropa[f]indazole-3-carboxamide] displayed a Dmax of 88.8% and a DC50 of 30.1 nM.

Regarding `Cc1ncsc1-c1ccc(CNC(=O)[C@@H]2C[C@@H](O)CN2C(=O)[C@@H](NC(=O)C2(F)CC2)C(C)(C)C)c(OCC(=O)N2CC([C@@H](c3ccccc3)n3cc(NC(=O)c4n[nH]c5c4C[C@@H]4C(F)(F)[C@]4(C)C5)cn3)C2)c1` [Compound 32, (4aS,5aR)-5,5-difluoro-N-(1-((S)-(1-(2-(2-(((2S,4R)-1-((S)-2-(1-fluorocyclopropane-1-carboxamido)-3,3-dimethylbutanoyl)-4-hydroxypyrrolidine-2-carboxamido)methyl)-5-(4-methylthiazol-5-yl)phenoxy)acetyl)azetidin-3-yl)(phenyl)methyl)-1H-pyrazol-4-yl)-5a-methyl-1,4,4a,5,5a,6-hexahydrocyclopropa[f]indazole-3-carboxamide], the Dmax is 63.4% and it took 20.2 nM to reach half-maximal degradation (DC50).

Compound `Cc1ncsc1-c1ccc(CNC(=O)[C@@H]2C[C@@H](O)CN2C(=O)[C@@H](NC(=O)C2(F)CC2)C(C)(C)C)c(OCCCC(=O)N2CC([C@@H](c3ccccc3)n3cc(NC(=O)c4n[nH]c5c4C[C@@H]4C(F)(F)[C@]4(C)C5)cn3)C2)c1` [Compound 33, (4aS,5aR)-5,5-difluoro-N-(1-((S)-(1-(4-(2-(((2S,4R)-1-((S)-2-(1-fluorocyclopropane-1-carboxamido)-3,3-dimethylbutanoyl)-4-hydroxypyrrolidine-2-carboxamido)methyl)-5-(4-methylthiazol-5-yl)phenoxy)butanoyl)azetidin-3-yl)(phenyl)methyl)-1H-pyrazol-4-yl)-5a-methyl-1,4,4a,5,5a,6-hexahydrocyclopropa[f]indazole-3-carboxamide] showed a Dmax of 94.5% and a DC50 of 27.9 nM.

In general, Dmax refers to the greatest extent of degradation seen. By DC50 is commonly meant the concentration at which degradation of the target reaches its halfway point. A low value points to degradation at low concentration.
